In test [1] the target is human RORγt ligand binding domain (RORγt LBD) (Homo sapiens (Human), UniProt P51449). Description: RORγt ThermoFluor assay. Put shortly:
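Thermal shift of His-tagged human RORγt LBD (0.065 mg/mL) with 60 μM 1,8-ANS in 100 mM Hepes pH 7.0, 10 mM NaCl, 2.5 mM GSH, 0.002% Tween-20, heated at 1° C./min. Compounds in 1:2 series from a 10 mM DMSO stock; KD estimated from ΔTm using protein unfolding thermodynamics.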

Another test concerns the target full-length human RORγt (Homo sapiens (Human), UniProt P51449). Description: RORγt (full-length human) reporter assay, conditions A or B. It counts as cell-based. The following applies: for IC50: HEK293T cells, read-out: RORγt (FL) Reporter Assay A or B, IC50; for inhibition at 2 µM: 2 μM compound concentration (**); for inhibition at 0.67 µM: 0.67 μM compound concentration (****); for inhibition at 6 µM: read-out: RORγt (FL) Reporter Assay A or B, % inhibition @ 6 μM, 6 μM compound concentration. Put shortly: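 HEK293T cells transiently co-transfected (PEI) with GAL4-DBD–RORγt, GAL4-firefly luciferase and CMV-Renilla reporters; condition A 35,000 cells/well, 170.5 ng DNA/well; condition B 8750 cells/well, 42.6 ng DNA/well.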
In general terms: In a reporter assay the amount or activity of a reporter protein is the signal.

The mark [2] stands for this setting: read-out: RORγt (FL) Reporter Assay A or B, % inhibition.

Marks after values point to notes of the source that are not given here.

full-length human RORγt, sequence (P51449 other isoform, or with tags, fused parts or gaps): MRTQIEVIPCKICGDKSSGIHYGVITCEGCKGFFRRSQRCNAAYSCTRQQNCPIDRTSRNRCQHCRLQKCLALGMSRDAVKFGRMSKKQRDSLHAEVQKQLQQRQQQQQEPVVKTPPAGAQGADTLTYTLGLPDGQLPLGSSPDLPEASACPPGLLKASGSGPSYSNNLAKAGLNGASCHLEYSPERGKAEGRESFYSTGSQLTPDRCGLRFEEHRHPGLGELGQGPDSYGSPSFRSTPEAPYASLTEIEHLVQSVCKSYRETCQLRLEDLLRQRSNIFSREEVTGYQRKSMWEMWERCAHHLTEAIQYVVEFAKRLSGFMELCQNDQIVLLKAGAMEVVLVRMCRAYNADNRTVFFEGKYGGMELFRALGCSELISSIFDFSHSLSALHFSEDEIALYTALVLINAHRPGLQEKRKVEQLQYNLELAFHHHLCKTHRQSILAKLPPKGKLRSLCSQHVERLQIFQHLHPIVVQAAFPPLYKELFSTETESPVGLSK
human RORγt ligand binding domain (RORγt LBD), sequence (P51449 other isoform, or with tags, fused parts or gaps): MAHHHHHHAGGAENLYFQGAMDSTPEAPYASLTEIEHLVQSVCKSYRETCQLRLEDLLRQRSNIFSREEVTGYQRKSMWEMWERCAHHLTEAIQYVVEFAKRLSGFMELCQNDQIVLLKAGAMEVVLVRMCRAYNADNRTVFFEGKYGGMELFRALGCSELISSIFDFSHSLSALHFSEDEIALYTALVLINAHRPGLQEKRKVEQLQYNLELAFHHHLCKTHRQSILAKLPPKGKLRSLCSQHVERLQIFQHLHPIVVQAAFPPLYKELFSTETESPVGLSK

What is called Kd is the equilibrium constant for the complex coming apart. The term IC50 denotes the concentration at which inhibition is half-maximal. `CCc1nc(C(=O)NC[C@H]2CC[C@H](S(=O)(=O)NC)CC2)c(Cl)n1-c1ncc(CC(C)(C)C(F)(F)F)cc1OC(F)F` [Example 68, 5-Chloro-1-(3-(difluoromethoxy)-5-(3,3,3-trifluoro-2,2-dimethylpropyl)pyridin-2-yl)-2-ethyl-N-(((1r,4r)-4-(N-methylsulfamoyl)cyclohexyl)methyl)-1H-imidazole-4-carboxamide] displayed a Kd in test [1] of 3.7 nM. The “RORγt (FL) Reporter Assay A or B, % inhibition” value on full-length human RORγt (3 μM compound concentration (*)) is reported as 103* %. The IC50 at full-length human RORγt stood at 50 nM.
One may read the inhibition as the relative decrease from the control value, in per cent. With `CCc1nc(C(=O)NC[C@H]2CC[C@H](S(C)(=O)=O)CC2)c(C#N)n1-c1ccc(CC(C)C(F)(F)F)cc1OC` (stereo partly drawn) [Example 16, 5-Cyano-2-ethyl-1-(2-methoxy-4-(3,3,3-trifluoro-2-methylpropyl)phenyl)-N-(((1r,4r)-4-(methylsulfonyl)cyclohexyl)methyl)-1H-imidazole-4-carboxamide], binding in test [1] was put at a Kd of 1.3 nM. For the same compound, the inhibition at 2 µM on full-length human RORγt (setting [2]) was found to be 103%. The IC50 at full-length human RORγt stood at 16 nM.
`[2H]C([2H])([2H])Oc1cc(CC(C)(C)C(F)(F)F)ccc1-n1c(CC)nc(C(=O)NC[C@H]2CC[C@H](S(C)(=O)=O)CC2)c1F` [Example 33, 2-Ethyl-5-fluoro-1-(2-(methoxy-d3)-4-(3,3,3-trifluoro-2,2-dimethylpropyl)phenyl)-N-(((1r,4r)-4-(methylsulfonyl)cyclohexyl)methyl)-1H-imidazole-4-carboxamide] registered a Kd in test [1] of 4.8 nM. For the same compound, the inhibition at 0.67 µM on full-length human RORγt (setting [2]) was 94%. At full-length human RORγt, the IC50 is 15 nM.
In test [1], `CCc1nc(C(=O)NC[C@H]2CC[C@H](S(C)(=O)=O)C[C@@H]2O)c(Cl)n1-c1ncc(CC(C(F)(F)F)C(F)(F)F)cc1OC(F)F` (stereo in doubt) [Example 64, 5-Chloro-1-(3-(difluoromethoxy)-5-(3,3,3-trifluoro-2-(trifluoromethyl)propyl)pyridin-2-yl)-2-ethyl-N-(((1R*,2S*,4S*)-2-hydroxy-4-(methylsulfonyl)cyclohexyl)methyl)-H-imidazole-4-carboxamide] returned a Kd of 35 nM. Besides, the inhibition at 3 µM on full-length human RORγt (3 μM compound concentration (*), read-out: RORγt (FL) Reporter Assay A or B, % inhibition) is 101%. In addition, the IC50 at full-length human RORγt is 210 nM.
Consider `CCc1nc(C(=O)NC[C@H]2CC[C@H](S(C)(=O)=O)CC2)cn1-c1ccc(C[C@@H](C)C(F)(F)F)cc1OC` (single isomer, unassigned) [Example 18, 2-Ethyl-1-(2-methoxy-4-((R*)-3,3,3-trifluoro-2-methylpropyl)phenyl)-N-(((1r,4R)-4-(methylsulfonyl)cyclohexyl)methyl)-1H-imidazole-4-carboxamide], for which binding in test [1] was characterised by a dissociation constant (Kd) of 28 nM. Also, the inhibition at 2 µM at full-length human RORγt (setting [2]) stood at 93%. In addition, at full-length human RORγt, the IC50 was 230 nM.
In turn, `COc1cc(N[C@H](C)C(F)(F)F)ccc1-n1c(CC(C)C)nc(C(=O)NC[C@H]2CC[C@H](S(C)(=O)=O)CC2)c1Cl` [Example 9, 5-Chloro-2-isobutyl-1-(2-methoxy-4-(((R)-1,1,1-trifluoropropan-2-yl)amino)phenyl)-N-(((1r,4R)-4-(methylsulfonyl)cyclohexyl)methyl)-1H-imidazole-4-carboxamide] yielded a Kd in test [1] of 2.6 nM. At full-length human RORγt, the IC50 was 35 nM and the inhibition at 6 µM was 101%.
With `CCc1nc(C(=O)NC[C@H]2CC[C@@H](S(C)(=O)=O)CC2)c(Cl)n1-c1ccc(N[C@H](C)C(F)(F)F)cc1OC` [Example 4, 5-Chloro-2-ethyl-1-(2-methoxy-4-(((R)-1,1,1-trifluoropropan-2-yl)amino)phenyl)-N-(((1s,4S)-4-(methylsulfonyl)cyclohexyl)methyl)-1H-imidazole-4-carboxamide], the Kd in test [1] is 470 nM. The inhibition at 2 µM at full-length human RORγt (setting [2]) was found to be 87%. For the same compound, on full-length human RORγt, the IC50 was determined as 350 nM.
Compound `CCc1nc(C(=O)NC[C@H]2CC[C@H](S(C)(=O)=O)CC2)c(Cl)n1-c1ccc(CC(C)C)cc1OC` [Example 89, 5-Chloro-2-ethyl-1-(4-isobutyl-2-methoxyphenyl)-N-(((1r,4r)-4-(methylsulfonyl)cyclohexyl)methyl)-1H-imidazole-4-carboxamide] gave a Kd in test [1] of 0.2 nM. The inhibition at 0.67 µM at full-length human RORγt (setting [2]) was determined as 66%. The IC50 on full-length human RORγt turned out to be 16 nM.
In the case of `CCc1nc(C(=O)NC[C@H]2CC[C@H](S(C)(=O)=O)CC2)c(F)n1-c1ccc(CCC(F)(F)F)cc1OC` [Example 13, 2-Ethyl-5-fluoro-1-(2-methoxy-4-(3,3,3-trifluoropropyl)phenyl)-N-(((1r,4r)-4-(methylsulfonyl)cyclohexyl)methyl)-1H-imidazole-4-carboxamide], the Kd in test [1] turned out to be 25 nM. At full-length human RORγt, the IC50 stood at 140 nM and the inhibition at 6 µM is 95%.
In turn, `CCc1nc(C(=O)NC[C@]2(O)CC[C@@H](S(C)(=O)=O)CC2)c(Cl)n1-c1ccc(CC(C)(C)C(F)(F)F)c(OC)c1` [Example 43, 5-Chloro-2-ethyl-N-(((1s,4s)-1-hydroxy-4-(methylsulfonyl)cyclohexyl)methyl)-1-(3-methoxy-4-(3,3,3-trifluoro-2,2-dimethylpropyl)phenyl)-1H-imidazole-4-carboxamide] displayed a Kd in test [1] of 2.2 nM. In addition, at full-length human RORγt (setting [2]), the inhibition at 0.67 µM was found to be 86%. The IC50 at full-length human RORγt stood at 3.2 nM.
Compound `CCc1nc(C(=O)NC[C@H]2CC[C@H](S(C)(=O)=O)CC2)c(C#N)n1-c1cnc(CCC(F)(F)F)cc1OC` [Example 117, 5-Cyano-2-ethyl-1-(4-methoxy-6-(3,3,3-trifluoropropyl)pyridin-3-yl)-N-(((1r,4r)-4-(methylsulfonyl)cyclohexyl)methyl)-1H-imidazole-4-carboxamide] yielded a Kd in test [1] of 560 nM. On full-length human RORγt, the half-maximal inhibitory concentration (IC50) worked out at 1500 nM and the inhibition at 6 µM was 88%.
Turning to `CCc1nc(C(=O)NC[C@H]2CC[C@H](S(C)(=O)=O)CC2)cn1-c1c(F)cc(CC(C)C)cc1F` [Example 82, 1-(2,6-Difluoro-4-isobutylphenyl)-2-ethyl-N-(((1r,4r)-4-(methylsulfonyl)cyclohexyl)methyl)-1H-imidazole-4-carboxamide], the affinity in test [1], expressed as Kd, was 150 nM. Also, the inhibition at 2 µM on full-length human RORγt (setting [2]) is 44%. Besides, the IC50 at full-length human RORγt is 370 nM.
The corresponding values for `COc1cc(N[C@H](C)C(F)(F)F)ccc1-n1c(C(C)(C)C)nc(C(=O)NC[C@H]2CC[C@H](S(C)(=O)=O)CC2)c1Cl` [Example 10, 2-(tert-Butyl)-5-chloro-1-(2-methoxy-4-(((R)-1,1,1-trifluoropropan-2-yl)amino)phenyl)-N-(((1r,4R)-4-(methylsulfonyl)cyclohexyl)methyl)-1H-imidazole-4-carboxamide] are 6.1 nM, 104% and 57 nM.
Compound `Cc1nc(C(=O)NC[C@]2(O)CC[C@@H](S(C)(=O)=O)CC2)c(C#N)n1-c1ccc(CC(C)(C)C(F)(F)F)cc1OC(F)F` [Example 54, 5-Cyano-1-(2-(difluoromethoxy)-4-(3,3,3-trifluoro-2,2-dimethylpropyl)phenyl)-N-(((1s,4s)-1-hydroxy-4-(methylsulfonyl)cyclohexyl)methyl)-2-methyl-1H-imidazole-4-carboxamide] displayed a Kd in test [1] of 11 nM. Besides, on full-length human RORγt (1 μM compound concentration (***), read-out: RORγt (FL) Reporter Assay A or B, % inhibition), the inhibition at 1 µM came out at 83%. On full-length human RORγt, the IC50 was determined as 35 nM.

The record behind these values is patent publication US11345666B2, “Phenyl and pyridinyl substituted imidazoles as modulators of RORγT” (Janssen Pharmaceutica NV, priority 2018, dated 2022).
